Measurements: PMC3863386 (Journal of the American Chemical Society, 2013)
Read-outs that look alike come from different tables or passages of the source.

Experiments:
[1] = target: C-LsrR T220A (Escherichia coli, UniProt P76141, T220A); conditions: compared to wild type C-LsrR
[2] = tested on: LsrR; conditions: cited from earlier work
[3] = target: T1, LsrR (Escherichia coli, UniProt P76141); conditions: for ΔH / ΔS: ITC titration of LsrR
[4] = target: C-LsrR Q215A (Escherichia coli, UniProt P76141, Q215A); conditions: compared to wild type C-LsrR
Sequence of C-LsrR Q215A (P76141 53-317 Q215A): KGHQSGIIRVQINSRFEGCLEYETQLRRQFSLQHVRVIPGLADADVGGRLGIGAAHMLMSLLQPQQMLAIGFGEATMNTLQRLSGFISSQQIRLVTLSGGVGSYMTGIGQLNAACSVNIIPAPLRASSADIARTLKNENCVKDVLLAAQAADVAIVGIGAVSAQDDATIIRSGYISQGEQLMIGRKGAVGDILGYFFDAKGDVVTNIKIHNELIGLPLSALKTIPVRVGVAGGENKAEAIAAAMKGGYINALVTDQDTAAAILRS

[5] = target: C-LsrR D243A (Escherichia coli, UniProt P76141, D243A); conditions: compared to wild type C-LsrR
Sequence of C-LsrR D243A (P76141 53-317 D243A): as the sequence (P76141 53-317 Q215A) above, with A163Q, D191A counted along it

[6] = target: C-LsrR K288A (Escherichia coli, UniProt P76141, K288A); conditions: compared to wild type C-LsrR
Sequence of C-LsrR K288A (P76141 53-317 K288A): as the sequence (P76141 53-317 Q215A) above, with A163Q, K236A counted along it

[7] = target: T1, LsrR; conditions: compared to LsrR alone
[8] = target: C-LsrR (Escherichia coli, UniProt P76141); experiment: biochemical; conditions: LsrR-binding affinity (Kd), approximate, rounded summary value
Sequence of C-LsrR (P76141 53-317): as the sequence (P76141 53-317 Q215A) above, with A163Q counted along it

[9] = tested on: QS signaling in S. typhimurium; conditions: after in vivo phosphorylation by LsrK; cited from earlier work
[10] = tested on: E. coli biofilms; conditions: simultaneous treatment with the antibiotic gentamicin; cited from earlier work
[11] = tested on: QS signaling in E. coli; conditions: after in vivo phosphorylation by LsrK; cited from earlier work

T1 sequence (P76141 whole entry): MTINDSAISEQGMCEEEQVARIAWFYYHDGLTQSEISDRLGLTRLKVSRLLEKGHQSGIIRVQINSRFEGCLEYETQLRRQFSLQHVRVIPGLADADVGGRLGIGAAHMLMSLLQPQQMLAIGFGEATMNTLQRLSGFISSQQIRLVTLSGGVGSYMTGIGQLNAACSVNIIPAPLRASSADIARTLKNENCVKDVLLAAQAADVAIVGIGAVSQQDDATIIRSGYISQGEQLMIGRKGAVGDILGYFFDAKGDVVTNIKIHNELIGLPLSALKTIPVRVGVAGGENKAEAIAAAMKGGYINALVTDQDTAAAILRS
Sequence of C-LsrR T220A (P76141 53-317 T220A): as the sequence (P76141 53-317 Q215A) above, with A163Q, T168A counted along it

| Compound | Agonist or antagonist [2] | ΔH ([3]; 20°C) | ΔS ([3]; 20°C) | Change of the DLS size distribution of LsrR on addition of ligand [7] | further results |
| --- | --- | --- | --- | --- | --- |
| CC(=O)C(=O)[C@@H](O)COP(=O)(O)O [D5P, phospho-DPD] | agonists | 0.98 kcal/mol | 23.0 cal/mol/K | clearly changed the DLS pattern of LsrR | Effect of T220A mutation on D5P binding affinity [1]: significant decrease of the binding affinity; Kd ([3]; read-out: Kd of LsrR (ITC), ITC, 20°C, one-site binding model): 1.78 ± 0.13 µM; Kd ([3]; read-out: LsrR-binding affinity (Kd), approximate, rounded summary value): ~2 µM; Effect of Q215A mutation on D5P binding affinity [4]: moderate; Effect of D243A mutation on D5P binding affinity [5]: less affinity for D5P than the wild type; Effect of K288A mutation on D5P binding affinity [6]: less affinity for D5P than the wild type |
| O=C[C@H](O)[C@H](O)[C@H](O)COP(=O)(O)O [R5P, D-ribose 5-phosphate] | – | – | – | did not show any apparent changes in the size distribution | Kd [8]: ~1000 µM |
| phospho-isobutyl DPD [D8P] | antagonist | 5.3 kcal/mol | 11.2 cal/mol/K | did not show any apparent changes in the size distribution | Inhibition of LsrR / QS signal transduction [2]: very potent inhibitor |
| CCCC(=O)C(=O)C(O)COP(=O)(O)O (stereo not shown) [D7P, phospho-propyl-DPD] | antagonist | – | – | – | – |
| CCC(=O)C(=O)[C@@H](O)COP(=O)(O)O [D6P, phospho-ethyl-DPD] | agonists | – | – | – | – |
| CC(C)CC(=O)C(=O)[C@@H](O)CO [isobutyl-DPD] | – | – | – | – | Effect on QS signaling [9]: attenuated QS signaling; Effect on biofilms [10]: dramatically reduced biofilm formation and cleared extant biofilms; Effect on QS signaling [11]: attenuated QS signaling |
